Series [1] deals with transgenic fruit flies and double transgenic mice expressing Aβ42. The following applies: cited from earlier work; for treatment of Aβ42-induced memory loss: transgenic fruit flies and double transgenic mice expressing Aβ42, WO2012/103282; for curative effect in screening: compounds screened in WO2012/103282.
For series [2], the system named is primary isolated fetal mouse cerebral cortical neuron. Description: Neuroprotective activity assay against Aβ42 oligomer toxicity, cell viability detected with WST-8. The following applies: 24 h. For orientation: Formazan colour is commonly taken as a measure of viable cells.
Where [3] appears, read: 0.001 μM/L drug + Aβ42 10 μmol/L.
Setting [4] is: 0.01 μM/L drug + Aβ42 10 μmol/L.
Setting [5] is: 1000 μM/L drug + Aβ42 10 μmol/L.
Setting [6] is: Aβ42 oligomer 10 μmol/L, compared with model group.

Each structure is given as a SMILES string.

Turning to `CCN1CCN(Cc2ccc(-c3cc4c(N[C@H](C)c5ccccc5)ncnc4[nH]3)cc2)CC1` [AEE 788], in series [1], the “treatment of Aβ42-induced memory loss” value is “effective”.

`CN(C)C/C=C/C(=O)Nc1cc2c(Nc3ccc(F)c(Cl)c3)ncnc2cc1O[C@H]1CCOC1` [BIBW 2992]: the “treatment of Aβ42-induced memory loss” value in series [1] is “effective”.

On to `Cc1c(NC(=O)OC[C@@H]2COCCN2)cn2ncnc(Nc3ccc4c(cnn4Cc4cccc(F)c4)c3)c12` [BMS-599626], for which the “treatment of Aβ42-induced memory loss” value in series [1] was “effective”.

Take `CC#CC(=O)Nc1ccc2ncnc(Nc3cccc(Br)c3)c2c1` [CL-387785]: the “treatment of Aβ42-induced memory loss” value in series [1] is given as “effective”.

On to `C=CCNC1=C2C[C@@H](C)C[C@H](OC)[C@H](O)[C@@H](C)/C=C(\C)[C@H](OC(N)=O)[C@@H](OC)/C=C\C=C(/C)C(=O)NC(=CC1=O)C2=O` [Compound 17-AAG], for which the “treatment of Aβ42-induced memory loss” value in series [1] is “effective”.

With `Cc1nc(Nc2ncc(C(=O)Nc3c(C)cccc3Cl)s2)cc(N2CCN(CCO)CC2)n1` [Compound I, N-(2-chloro-6-methylphenyl)-2-{6-[4-(3-hydroxyethyl)-1-piperazinyl]-2-methyl-4-pyrimidinylamino}-5-thiazolecarboxamide], the “Mean value of cell viability based on three independent replicates” value (from here on “Mean value of cell viability based”) in series [2] (0.001 μM drug + Aβ42 10 μmol/L) is listed as 46.65%; in series [2] (0.01 μM drug + Aβ42 10 μmol/L) it was 67.99%; in series [2] (0.1 μM drug + Aβ42 10 μmol/L), 71.02%; in series [2] (1.0 μM drug + Aβ42 10 μmol/L), 72.44%; in series [2] (10 μM drug + Aβ42 10 μmol/L), 63.20%; in series [2] (100 μM drug + Aβ42 10 μmol/L), 73.40%. In series [2] (1000 μM drug + Aβ42 10 μmol/L), the “Mean value of cell viability based” value was determined as 64.34%. For the same compound, the “Cell viability data in the first independent test” value in series [2] (setting [3]) was found to be 26.98%; in series [2] (setting [4]), 69.31%; in series [2] (0.1 μM/L drug + Aβ42 10 μmol/L) it was 80.78%; in series [2] (1 μM/L drug + Aβ42 10 μmol/L) it was 76.90%; in series [2] (10 μM/L drug + Aβ42 10 μmol/L) it was 68.61%; in series [2] (100 μM/L drug + Aβ42 10 μmol/L) it was 74.43%. Also, in series [2] (setting [5]), the “Cell viability data in the first independent test” value came to 76.72%. Further, the “Cell viability data in the second independent test” value is on record as 54.70% in series [2] (setting [3]); 67.22% in series [2] (setting [4]); 64.25% in series [2] (0.1 μM/L drug + Aβ42 10 μmol/L); 65.73% in series [2] (1 μM/L drug + Aβ42 10 μmol/L); 56.51% in series [2] (10 μM/L drug + Aβ42 10 μmol/L); 86.16% in series [2] (100 μM/L drug + Aβ42 10 μmol/L). The “Cell viability data in the second independent test” value in series [2] (setting [5]) worked out at 63.92%. Moreover, the “Cell viability data in the third independent test” value in series [2] (setting [3]) came to 58.28%; in series [2] (setting [4]) it was 67.46%; in series [2] (0.1 μM/L drug + Aβ42 10 μmol/L) it was 68.05%; in series [2] (1 μM/L drug + Aβ42 10 μmol/L), 74.70%; in series [2] (10 μM/L drug + Aβ42 10 μmol/L), 64.50%; in series [2] (100 μM/L drug + Aβ42 10 μmol/L) it was 59.62%. Besides, the “Cell viability data in the third independent test” value in series [2] (setting [5]) came to 52.37%. The “dose span of effective concentration range relative to JKF-027” value in series [2] (Aβ42 oligomer 10 μmol/L) was 10^4 times. For the same compound, the “effective concentration range (anti-toxic effect against Aβ42 oligomer)” value in series [2] (setting [6]) is 0.01 to 1000 µmol/L.

Consider `CCOc1cc2ncc(C#N)c(Nc3ccc(F)c(Cl)c3)c2cc1NC(=O)/C=C/CN(C)C` [EKB-569], for which the “treatment of Aβ42-induced memory loss” value in series [1] is given as “effective”.

For `CCOc1cc2ncc(C#N)c(Nc3ccc(OCc4cccc(F)c4)c(Cl)c3)c2cc1NC(=O)/C=C/CN(C)C` [HKI-357], the “treatment of Aβ42-induced memory loss” value in series [1] is listed as “effective”.

Turning to `C=CCNc1c(O)cc2c(O)c1C[C@@H](C)C[C@H](OC)[C@H](O)[C@@H](C)/C=C(\C)[C@H](OC(N)=O)[C@@H](OC)/C=C\C=C(/C)C(=O)N2` [IPI-504], in series [1], the “treatment of Aβ42-induced memory loss” value is recorded as “effective”.

With `N#C/C(=C\c1ccc(-c2cc(C(=O)O)ccc2Cl)o1)C(=O)Nc1ccc(F)cc1` [JKF-006], in series [1], the “curative effect in screening” value is recorded as “preferable curative effect” and the “treatment of Aβ42-induced memory loss” value was “effective”.

In the case of `N#C/C(=C\c1ccc(N2CCOCC2)o1)C(=O)NCCc1c[nH]c2ccccc12` [JKF-027], the “curative effect in screening” value in series [1] is listed as “preferable curative effect”. Besides, the “treatment of Aβ42-induced memory loss” value in series [1] is “effective”. The “Mean value of cell viability based” value is recorded as 46.83% in series [2] (0.01 μM drug + Aβ42 10 μmol/L); 61.39% in series [2] (0.1 μM drug + Aβ42 10 μmol/L); 65.31% in series [2] (1.0 μM drug + Aβ42 10 μmol/L); 77.28% in series [2] (10 μM drug + Aβ42 10 μmol/L); 40.52% in series [2] (100 μM drug + Aβ42 10 μmol/L); 21.89% in series [2] (1000 μM drug + Aβ42 10 μmol/L). Also, the “Cell viability data in the first independent test” value came out at 49.59% in series [2] (setting [4]); 77.44% in series [2] (0.1 μM/L drug + Aβ42 10 μmol/L); 61.59% in series [2] (1 μM/L drug + Aβ42 10 μmol/L); 87.60% in series [2] (10 μM/L drug + Aβ42 10 μmol/L); 51.83% in series [2] (100 μM/L drug + Aβ42 10 μmol/L); 27.85% in series [2] (setting [5]). The “Cell viability data in the second independent test” value in series [2] (setting [4]) turned out to be 45.88%; in series [2] (0.1 μM/L drug + Aβ42 10 μmol/L), 48.40%; in series [2] (1 μM/L drug + Aβ42 10 μmol/L), 61.01%; in series [2] (10 μM/L drug + Aβ42 10 μmol/L), 69.75%; in series [2] (100 μM/L drug + Aβ42 10 μmol/L), 46.89%; in series [2] (setting [5]), 18.66%. Moreover, the “Cell viability data in the third independent test” value in series [2] (setting [4]) was 45.00%; in series [2] (0.1 μM/L drug + Aβ42 10 μmol/L), 58.33%; in series [2] (1 μM/L drug + Aβ42 10 μmol/L), 73.33%; in series [2] (10 μM/L drug + Aβ42 10 μmol/L) it was 74.50%; in series [2] (100 μM/L drug + Aβ42 10 μmol/L), 22.83%; in series [2] (setting [5]), 19.17%. The “effective concentration range (anti-toxic effect against Aβ42 oligomer)” value in series [2] (setting [6]) lay within 0.1 to 10 µmol/L. Further, the optimum anti-toxic concentration in series [2] (setting [6]) fell in the range of 0.1 to 10 µmol/L.

Turning to `COc1cc2c(Nc3ccc(Cl)c(Cl)c3F)ncnc2cc1OC[C@@H]1C[C@@H]2CN(C)C[C@@H]2C1` [XL647], the “treatment of Aβ42-induced memory loss” value in series [1] was “effective”.

`COc1cc2c(Nc3ccc(Br)cc3F)ncnc2cc1OCC1CCN(C)CC1` [ZD-6474]: the “treatment of Aβ42-induced memory loss” value in series [1] is recorded as “effective”.

These data come from patent publication US20180117043A1, “USE OF SRC PROTEIN INHIBITOR IN THE MANUFACTURE OF A MEDICAMENT FOR THE PROPHYLAXIS AND/OR TREATMENT OF ALZHEIMER'S DISEASE” (JenKem Technology Co., Ltd. (Beijing), priority 2015, published 2018).
